# Earlier results in patent US20130101569A1, “HAIR GROWTH STIMULANT” (priority 2011, published 2013).
# Key:
# [1] = test system: healthy, older adults with mild memory complaints; settings: taken for six months; 485 subjects aged 55 and older
# [2] = not carbohydrates
Compound,heart rate [1],memory and learning [1],cravings for fat [2]
"CC/C=C\C/C=C\C/C=C\C/C=C\C/C=C\C/C=C\CCC(=O)O [algal DHA, 4Z,7Z,10Z,13Z,16Z,19Z)-docosa-4,7,10,13,16,19-hexaenoic acid]",decreased heart rate,improved memory and learning,
Chromium(III) picolinate [chromium picolinate],,,reduce cravings for fat
